We go through 29 compounds from patent publication US20190112316A1, “THIAZOLO[3,2-A] PYRIMIDINONE AND OTHER HETEROBICYCLIC PYRIMIDINONE COMPOUNDS FOR USE IN MEDICAL THERAPY” (priority 2015, published 2019).

Converted amounts (≈) assume the structure as drawn.

One data set concerns the target T1, glucocerebrosidase (Gcase) (Homo sapiens, UniProt P04062).
T1 construct: micellar solution containing 10 nM GCase and 100 nM saposin C (Enzo ALX-201-262-C050)
T1 sequence (P04062 40-536): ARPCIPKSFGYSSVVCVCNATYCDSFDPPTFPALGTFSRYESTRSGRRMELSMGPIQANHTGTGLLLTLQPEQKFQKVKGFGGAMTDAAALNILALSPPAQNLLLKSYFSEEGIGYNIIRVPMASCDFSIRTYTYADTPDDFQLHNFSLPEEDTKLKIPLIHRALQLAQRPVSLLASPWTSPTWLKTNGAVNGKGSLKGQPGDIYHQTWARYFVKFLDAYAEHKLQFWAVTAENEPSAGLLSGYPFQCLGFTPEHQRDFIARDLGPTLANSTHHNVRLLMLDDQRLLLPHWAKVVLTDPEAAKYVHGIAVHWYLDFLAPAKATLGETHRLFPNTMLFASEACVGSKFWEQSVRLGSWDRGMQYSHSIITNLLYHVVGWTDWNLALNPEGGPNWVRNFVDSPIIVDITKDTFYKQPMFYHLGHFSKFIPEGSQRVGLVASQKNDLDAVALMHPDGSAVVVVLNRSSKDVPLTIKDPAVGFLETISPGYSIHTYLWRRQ
The experiment in a line: Glucocerebrosidase (Gcase) activation assay, 4-methylumbelliferyl-beta-D-glucopyranoside substrate, with saposin C. Format: biochemical. Particulars: read-out: Percent Gcase Activation 0.1 μM Test Compound. As to the method: A 484 μL aliquot of a 1.0 mg/mL solution of phosphatidylserine (PS) (Sigma P7769) in chloroform was evaporated under a stream of nitrogen for 1 hour. The lipid film was dissolved over 4 minutes of vigorous vortexing in 40 mL of 176 mM K2HPO4/50 mM citric acid (pH 4.7) containing 7.5 μL of triton X-100, resulting in a mixed micellar preparation with a composition of 0.32 mM triton and 0.37 mol % PS. 4-Methylumbelliferyl-beta-D-glucopyranoside (ACROS-337025000) was dissolved in the micellar solution to a final concentration of 2 mM for use as the reaction substrate.
Test compounds were diluted to the desired concentrations with dimethylsulfoxide (DMSO) from 10 mM stocks, and 0.41 μL of the DMSO compound mixture was added to 100 μL of micellar solution containing 10 nM GCase and 100 nM saposin C (Enzo ALX-201-262-C050). Pre-incubation was allowed to occur for 30 minutes at room temperature, after which the reaction was initiated by combining 25 μL of substrate solution with 25 μL of compound/GCase/saposin mixture. The reaction proceeded for 15 minutes at room temperature and was stopped by adding 150 μL of 1M glycine, pH 12.5. The endpoint of the reaction was monitored by measuring fluorescence intensity (excitation: 365 nm; emission: 440 nm) on a SpectraMax i3 instrument (Molecular Devices). Test compounds were screened at 1.0 and 0.1 μM final concentration, and subsequent 8-point dose response curves were obtained using 3-fold dilutions from a maximum final concentration of 5 μM.
Turning to `CCCCCO[C@H]1CC[C@H](NC(=O)c2cnc3n(c2=O)CCS3)CC1`, the activation at 0.1 µM was below 5%.
`O=C(Nc1ccc2c(c1)OCCO2)c1cnc2n(c1=O)CCS2`: the activation at 0.1 µM was below 5%.
Same read-out and setting: next, `Cc1cccc2ncc(C(=O)NC3CCCCCC3)c(=O)n12`: below 5%; `Cc1csc2ncc(C(=O)Nc3ccc4c(c3)OCO4)c(=O)n12`: below 5%; `CCC(C)c1ccc(NC(=O)c2cnc3c(C)cccn3c2=O)cc1` (stereo not shown): below 5%.
`CCCCc1ccc(NC(=O)c2cnc3n(c2=O)CCS3)cc1`: the activation at 0.1 µM fell in the range of 5 to 20%.
Regarding `O=C(NC1CCCc2ccccc21)c1cnc2n(c1=O)CCS2` (stereo not shown), the activation at 0.1 µM is below 5%.
Same read-out and setting: next, `Cc1ccc(NC(=O)c2cnc3n(c2=O)CCS3)cc1-c1ncco1`: below 5%; `Cc1cccc2ncc(C(=O)NC3CCC(c4ccccc4)CC3)c(=O)n12` (stereo not shown): 5 to 20%.
In the case of `Cc1ccn2c(=O)c(C(=O)NC3CCc4ccccc4C3)cnc2c1` (stereo not shown), the activation at 0.1 µM is below 5%.
Regarding `O=C(NC1CCC(c2ccccc2)CC1)c1cnc2n(c1=O)CCS2` (stereo not shown), the activation at 0.1 µM is 5 to 20%.
`CCCCC1CCC(NC(=O)c2cnc3n(c2=O)CC(C)S3)CC1` (stereo not shown): the activation at 0.1 µM was below 5%.
On the same count and under the same terms, next, `CCCCc1ccc(NC(=O)c2cnc3cccc(C)n3c2=O)cc1`: 5 to 20%.
For `Cc1cccc2ncc(C(=O)NC3CCOCC3)c(=O)n12`, the activation at 0.1 µM is below 5%.
Still for that read-out and setting: the same measure for `CCN1CCN(c2ccc(NC(=O)c3cnc4cccc(C)n4c3=O)cc2)CC1`: below 5%.
Consider `O=C(NC1CCOCC1)c1cnc2n(c1=O)CCS2`, for which the activation at 0.1 µM is below 5%.
Same read-out and setting: next, `COCC#Cc1ccc(NC(=O)c2cnc3n(c2=O)CCS3)cc1`: 5 to 20%.
With `C[C@H](NC(=O)c1cnc2n(c1=O)CCS2)c1ccccc1`, the activation at 0.1 µM lay in the range of 5 to 20%.
With `CCc1ccc(NC(=O)c2cnc3n(c2=O)CCS3)cc1`, the activation at 0.1 µM was below 5%.
Consider `O=C(Nc1ccc(C2CCCCC2)cc1)c1cnc2n(c1=O)CCS2`, for which the activation at 0.1 µM was in the range of 5 to 20%.
On the same count and under the same terms, the same measure for `CCCCC1CCC(NC(=O)c2cnc3n(c2=O)CCS3)CC1` (stereo not shown): 5 to 20%; for `Cc1cccc2ncc(C(=O)NC3CC4CCC3C4)c(=O)n12` (stereo not shown): below 5%; for `O=C(NCCOc1ccccc1)c1cnc2n(c1=O)CCS2`: below 5%.
The same measure, in the same setting: the same measure for `O=C(Nc1ccc(-c2cccs2)cc1)c1cnc2n(c1=O)CCS2`: 5 to 20%; for `O=C(Nc1ccc(-c2cocn2)cc1)c1cnc2n(c1=O)CCS2`: below 5%; for `O=C(NC1CC2CCC1C2)c1cnc2n(c1=O)CCS2` (stereo not shown): below 5%.
Same read-out and setting: the same measure for `Cc1cccc2ncc(C(=O)NCCOc3ccccc3)c(=O)n12`: below 5%; for `O=C(NC1CCOc2ccccc21)c1cnc2n(c1=O)CCS2` (stereo not shown): below 5%; for `Cc1csc2ncc(C(=O)Nc3ccc(Oc4ccccc4)cc3)c(=O)n12`: 5 to 20%.

Staying with this data set, now noted: read-out: Percent Gcase Activation 1 μM Test Compound.
With `CCCCCO[C@H]1CC[C@H](NC(=O)c2cnc3n(c2=O)CCS3)CC1`, the activation at 1 µM lay in the range of 5 to 20%.
Turning to `O=C(Nc1ccc2c(c1)OCCO2)c1cnc2n(c1=O)CCS2`, the activation at 1 µM is below 5%.
The same measure, in the same setting: next, `Cc1cccc2ncc(C(=O)NC3CCCCCC3)c(=O)n12`: above 20%.
In the case of `Cc1csc2ncc(C(=O)Nc3ccc4c(c3)OCO4)c(=O)n12`, the activation at 1 µM was in the range of 5 to 20%.
Turning to `CCC(C)c1ccc(NC(=O)c2cnc3c(C)cccn3c2=O)cc1` (stereo not shown), the activation at 1 µM is 5 to 20%.
On to `CCCCc1ccc(NC(=O)c2cnc3n(c2=O)CCS3)cc1`, for which the activation at 1 µM was above 20%.
The same measure, in the same setting: the same measure for `O=C(NC1CCCc2ccccc21)c1cnc2n(c1=O)CCS2` (stereo not shown): above 20%; for `Cc1ccc(NC(=O)c2cnc3n(c2=O)CCS3)cc1-c1ncco1`: 5 to 20%.
With `Cc1cccc2ncc(C(=O)NC3CCC(c4ccccc4)CC3)c(=O)n12` (stereo not shown), the activation at 1 µM was above 20%.
In the case of `Cc1ccn2c(=O)c(C(=O)NC3CCc4ccccc4C3)cnc2c1` (stereo not shown), the activation at 1 µM fell in the range of 5 to 20%.
For `O=C(NC1CCC(c2ccccc2)CC1)c1cnc2n(c1=O)CCS2` (stereo not shown), the activation at 1 µM was above 20%.
As to `CCCCC1CCC(NC(=O)c2cnc3n(c2=O)CC(C)S3)CC1` (stereo not shown), the activation at 1 µM is above 20%.
Still for that read-out and setting: the same measure for `CCCCc1ccc(NC(=O)c2cnc3cccc(C)n3c2=O)cc1`: above 20%.
The same measure, in the same setting: next, `Cc1cccc2ncc(C(=O)NC3CCOCC3)c(=O)n12`: 5 to 20%.
In the case of `CCN1CCN(c2ccc(NC(=O)c3cnc4cccc(C)n4c3=O)cc2)CC1`, the activation at 1 µM lay in the range of 5 to 20%.
Take `O=C(NC1CCOCC1)c1cnc2n(c1=O)CCS2`: the activation at 1 µM is 5 to 20%.
Take `COCC#Cc1ccc(NC(=O)c2cnc3n(c2=O)CCS3)cc1`: the activation at 1 µM fell in the range of 5 to 20%.
Same read-out and setting: the same measure for `C[C@H](NC(=O)c1cnc2n(c1=O)CCS2)c1ccccc1`: 5 to 20%; for `CCc1ccc(NC(=O)c2cnc3n(c2=O)CCS3)cc1`: above 20%.
As to `O=C(Nc1ccc(C2CCCCC2)cc1)c1cnc2n(c1=O)CCS2`, the activation at 1 µM is above 20%.
On the same count and under the same terms, next, `CCCCC1CCC(NC(=O)c2cnc3n(c2=O)CCS3)CC1` (stereo not shown): above 20%.
As for `Cc1cccc2ncc(C(=O)NC3CC4CCC3C4)c(=O)n12` (stereo not shown), the activation at 1 µM lay within 5 to 20%.
Same read-out and setting: the same measure for `O=C(NCCOc1ccccc1)c1cnc2n(c1=O)CCS2`: 5 to 20%; for `O=C(Nc1ccc(-c2cccs2)cc1)c1cnc2n(c1=O)CCS2`: 5 to 20%; for `O=C(Nc1ccc(-c2cocn2)cc1)c1cnc2n(c1=O)CCS2`: below 5%.
For `O=C(NC1CC2CCC1C2)c1cnc2n(c1=O)CCS2` (stereo not shown), the activation at 1 µM is below 5%.
Still for that read-out and setting: the same measure for `Cc1cccc2ncc(C(=O)NCCOc3ccccc3)c(=O)n12`: 5 to 20%; for `O=C(NC1CCOc2ccccc21)c1cnc2n(c1=O)CCS2` (stereo not shown): 5 to 20%; for `Cc1csc2ncc(C(=O)Nc3ccc(Oc4ccccc4)cc3)c(=O)n12`: above 20%.

Test system in the next data set: not listed separately
In words: Compound solubility in water. It is filed as physicochemical.
Details: not given
`CCCCCO[C@H]1CC[C@H](NC(=O)c2cnc3n(c2=O)CCS3)CC1` registered a solubility of 8.4 µg/mL (≈ 23 µM).
On the same count and under the same terms, the same measure for `O=C(Nc1ccc2c(c1)OCCO2)c1cnc2n(c1=O)CCS2`: 9.5 µg/mL (≈ 28.7 µM); for `Cc1cccc2ncc(C(=O)NC3CCCCCC3)c(=O)n12`: 9.3 µg/mL (≈ 31.1 µM).
In the case of `CCC(C)c1ccc(NC(=O)c2cnc3c(C)cccn3c2=O)cc1` (stereo not shown), the solubility was 0.5 µg/mL (≈ 1.49 µM).
Still for that read-out and setting: next, `CCCCc1ccc(NC(=O)c2cnc3n(c2=O)CCS3)cc1`: 0.2 µg/mL (≈ 0.607 µM).
`O=C(NC1CCCc2ccccc21)c1cnc2n(c1=O)CCS2` (stereo not shown): the solubility came out at 7.1 µg/mL (≈ 21.7 µM). Against the preceding compound, the solubility is about 35-fold higher.
For the compound `Cc1cccc2ncc(C(=O)NC3CCC(c4ccccc4)CC3)c(=O)n12` (stereo not shown), the concentration in solution (solubility) came to 3.5 µg/mL (≈ 9.68 µM).
As for `O=C(NC1CCC(c2ccccc2)CC1)c1cnc2n(c1=O)CCS2` (stereo not shown), the concentration in solution (solubility) came to 10.6 µg/mL (≈ 29.8 µM).
In turn, `CCCCC1CCC(NC(=O)c2cnc3n(c2=O)CC(C)S3)CC1` (stereo not shown) displayed a solubility of 1.2 µg/mL (≈ 3.43 µM).
On the same count and under the same terms, the same measure for `CCCCc1ccc(NC(=O)c2cnc3cccc(C)n3c2=O)cc1`: 0.05 µg/mL (≈ 0.149 µM).
Still for that read-out and setting: next, `Cc1cccc2ncc(C(=O)NC3CCOCC3)c(=O)n12`: 31 µg/mL (≈ 108 µM); `CCN1CCN(c2ccc(NC(=O)c3cnc4cccc(C)n4c3=O)cc2)CC1`: 33.3 µg/mL (≈ 85.1 µM); `O=C(NC1CCOCC1)c1cnc2n(c1=O)CCS2`: 26.3 µg/mL (≈ 93.5 µM).
`C[C@H](NC(=O)c1cnc2n(c1=O)CCS2)c1ccccc1` yielded a solubility of 37.2 µg/mL (≈ 123 µM).
The compound `CCc1ccc(NC(=O)c2cnc3n(c2=O)CCS3)cc1` had a solubility of 5.1 µg/mL (≈ 16.9 µM).

One may read the solubility as the dissolved amount per volume that the medium holds. A low value points to a poorly soluble substance.
